The source of these data is US9249131B2, “Modulators of ATP-binding cassette transporters” (Vertex Pharmaceuticals Incorporated, priority 2003, dated 2016).

A value given as a limit tells only on which side of the number the result lay.

For this assay, the target named is T1, ΔF508-CFTR (Homo sapiens, UniProt P13569, DEL508-508).
T1 construct: expressed in transfected cells; host or cells: NIH3T3 mouse fibroblasts stably expressing ΔF508-CFTR for the optical, whole-cell and single-channel assays; Fisher rat epithelial (FRT) cells for Ussing chamber follow-up
T1 sequence (P13569 with tags, fused parts or gaps DEL508-508): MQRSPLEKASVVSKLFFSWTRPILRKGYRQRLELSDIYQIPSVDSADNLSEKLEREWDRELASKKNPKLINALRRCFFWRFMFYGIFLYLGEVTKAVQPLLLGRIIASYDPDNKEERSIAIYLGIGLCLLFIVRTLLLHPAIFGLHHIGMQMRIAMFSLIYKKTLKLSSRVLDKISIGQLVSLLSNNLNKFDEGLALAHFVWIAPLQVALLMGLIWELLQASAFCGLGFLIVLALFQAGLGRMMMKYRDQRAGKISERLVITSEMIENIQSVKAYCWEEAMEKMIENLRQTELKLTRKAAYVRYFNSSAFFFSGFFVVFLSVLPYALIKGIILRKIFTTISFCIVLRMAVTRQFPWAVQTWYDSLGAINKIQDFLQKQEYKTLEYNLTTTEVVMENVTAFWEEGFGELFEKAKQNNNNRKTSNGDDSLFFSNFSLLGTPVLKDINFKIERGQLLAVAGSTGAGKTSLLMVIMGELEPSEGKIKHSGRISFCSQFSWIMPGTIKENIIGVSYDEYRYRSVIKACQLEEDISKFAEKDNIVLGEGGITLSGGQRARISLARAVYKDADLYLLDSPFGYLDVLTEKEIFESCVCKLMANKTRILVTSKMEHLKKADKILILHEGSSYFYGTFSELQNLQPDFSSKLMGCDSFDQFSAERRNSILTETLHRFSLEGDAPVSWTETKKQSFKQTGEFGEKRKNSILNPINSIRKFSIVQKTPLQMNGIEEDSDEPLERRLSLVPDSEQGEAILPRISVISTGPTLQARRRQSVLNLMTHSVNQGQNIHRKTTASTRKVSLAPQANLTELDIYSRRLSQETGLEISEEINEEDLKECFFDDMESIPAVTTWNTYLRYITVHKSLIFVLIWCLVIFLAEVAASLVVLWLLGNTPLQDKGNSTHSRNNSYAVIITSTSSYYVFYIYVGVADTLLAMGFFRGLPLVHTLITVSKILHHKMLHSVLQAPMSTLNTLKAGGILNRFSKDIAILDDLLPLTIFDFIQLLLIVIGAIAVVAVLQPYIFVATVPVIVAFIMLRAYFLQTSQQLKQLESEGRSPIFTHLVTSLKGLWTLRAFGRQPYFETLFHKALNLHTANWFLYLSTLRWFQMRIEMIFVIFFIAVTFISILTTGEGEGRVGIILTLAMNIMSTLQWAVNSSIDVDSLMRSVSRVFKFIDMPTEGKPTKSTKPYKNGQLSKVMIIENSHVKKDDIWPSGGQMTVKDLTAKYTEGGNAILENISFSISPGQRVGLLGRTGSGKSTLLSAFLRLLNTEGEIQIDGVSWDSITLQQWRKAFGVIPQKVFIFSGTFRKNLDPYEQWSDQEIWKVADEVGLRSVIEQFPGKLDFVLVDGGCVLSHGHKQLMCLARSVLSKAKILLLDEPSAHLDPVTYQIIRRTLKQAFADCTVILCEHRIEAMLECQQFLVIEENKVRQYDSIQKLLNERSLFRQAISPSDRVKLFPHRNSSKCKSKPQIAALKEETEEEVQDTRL
Nature of the assay: Assays for ΔF508-CFTR correction and potentiator properties (membrane potential optical and electrophysiological methods). Type of assay: cell-based. Conditions: CFTR modulation; for % Activity: % Efficacy; for EC50: tested using the above methods. Put shortly:
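NIH3T3 mouse fibroblasts stably expressing ΔF508-CFTR were used, with membrane potential read by DiSBAC2(3)/CC2-DMPE FRET on VIPR. Correctors: 16 h compound exposure at 37 °C, then activation with forskolin plus genistein in Cl⁻-free medium. Potentiators: cells held 24 h at 27 °C, compound added in Cl⁻-free medium, 2-10 μM forskolin 22 s later (final Cl⁻ 28 mM).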

As to `N#Cc1ccccc1Cc1cnc(NC(=O)C(c2ccccc2)C2CCCC2)s1` (stereo not drawn) [compound 260], the “% Activity” value was “++ (“++” means between 25% to 100%)” and the 50% effective concentration (EC50) was less than 10 µM.

As for `CC(C)C(C(=O)Nc1ncc(Cc2ccccc2C#N)s1)c1ccccc1` (stereo not drawn) [compound 261], the “% Activity” value is reported as “++ (“++” means between 25% to 100%)” and the EC50 is less than 10 µM.

`CCC(C(=O)Nc1ncc(C(=O)c2ccccc2Cl)s1)c1ccccc1` (stereo not drawn) [compound 262]: the “% Activity” value was “++ (“++” means between 25% to 100%)” and the 50% effective concentration (EC50) lay within 25 to 60 µM.

Consider `CCC(C(=O)Nc1ncc(C(O)c2ccccc2Cl)s1)c1ccccc1` (stereo not drawn) [compound 263], for which the “% Activity” value is “++ (“++” means between 25% to 100%)” and the EC50 is less than 10 µM.

As to `CCC(C(=O)Nc1nc2ccc(S(C)(=O)=O)cc2s1)c1ccccc1` (stereo not drawn) [compound 264], the “% Activity” value was “++ (“++” means between 25% to 100%)” and the 50% effective concentration (EC50) is 25 to 60 µM.

In the case of `CCOc1ccc2nc(NC(=O)C(CC)c3ccccc3)sc2c1` (stereo not drawn) [compound 265], the “% Activity” value is given as “+++ (“+++” means >100%)” and the EC50 was less than 10 µM.

Regarding `CCC(C(=O)Nc1nc2ccc(OC)cc2s1)c1ccccc1` (stereo not drawn) [compound 266], the “% Activity” value is reported as “++ (“++” means between 25% to 100%)” and the EC50 was less than 10 µM.

Regarding `CCC(C(=O)Nc1nc2cc(C)c(C)cc2s1)c1ccccc1` (stereo not drawn) [compound 267], the “% Activity” value was “++ (“++” means between 25% to 100%)” and the EC50 was less than 10 µM.

Regarding `CCC(C(=O)Nc1nc2cccc(C)c2s1)c1ccccc1` (stereo not drawn) [compound 268], the “% Activity” value is “++ (“++” means between 25% to 100%)” and the EC50 is less than 10 µM.

For `COC(=O)CC(C(=O)Nc1ncc(Cc2ccccc2Cl)s1)c1ccccc1` (stereo not drawn) [compound 269], the “% Activity” value is “++ (“++” means between 25% to 100%)” and the EC50 is less than 10 µM.

In the case of `CCC(C(=O)Nc1ncc(Cc2ccccc2Cl)s1)c1ccc(OC)cc1` (stereo not drawn) [compound 270], the “% Activity” value is given as “++ (“++” means between 25% to 100%)” and the EC50 is less than 10 µM.

As for `CC(CC(=O)Nc1ncc(Cc2ccccc2Cl)s1)c1ccccc1` (stereo not drawn) [compound 271], the “% Activity” value is on record as “++ (“++” means between 25% to 100%)” and the half-maximal effective concentration (EC50) was less than 10 µM.

Take `CN(C)C(Cc1ccccc1)C(=O)Nc1ncc(Cc2ccccc2Cl)s1` (stereo not drawn) [compound 272]: the “% Activity” value was “+++ (“+++” means >100%)” and the concentration for a half-maximal effect (EC50) is less than 10 µM.

Turning to `CCC(C(=O)Nc1ncc(Cc2ccccc2OC)s1)c1ccc(OC)cc1` (stereo not drawn) [compound 273], the “% Activity” value is listed as “++ (“++” means between 25% to 100%)” and the concentration giving a half-maximal response (EC50) is less than 10 µM.

For `COc1ccccc1Cc1cnc(NC(=O)CC(C)c2ccccc2)s1` (stereo not drawn) [compound 274], the “% Activity” value is “++ (“++” means between 25% to 100%)” and the EC50 lay within 25 to 60 µM.

With `COc1ccccc1Cc1cnc(NC(=O)C(Cc2ccccc2)N(C)C)s1` (stereo not drawn) [compound 275], the “% Activity” value was “++ (“++” means between 25% to 100%)” and the EC50 was in the range of 25 to 60 µM.

Regarding `CC(CC(=O)Nc1ncc(Cc2ccccc2C#N)s1)c1ccccc1` (stereo not drawn) [compound 276], the “% Activity” value is “++ (“++” means between 25% to 100%)” and the EC50 was 25 to 60 µM.

With `CN(C)C(Cc1ccccc1)C(=O)Nc1ncc(Cc2ccccc2C#N)s1` (stereo not drawn) [compound 277], the “% Activity” value is reported as “++ (“++” means between 25% to 100%)” and the EC50 was in the range of 25 to 60 µM.

As to `CCC(C(=O)Nc1ncc(Cc2ccccc2Cl)n1C)c1ccccc1` (stereo not drawn) [compound 278], the “% Activity” value is given as “++ (“++” means between 25% to 100%)” and the EC50 was less than 10 µM.

Regarding `Cc1csc(NC(=O)C(c2ccccc2)c2ccccc2)n1` [compound 279], the “% Activity” value is reported as “++ (“++” means between 25% to 100%)” and the 50% effective concentration (EC50) lay within 25 to 60 µM.

In the case of `CCOC(=O)c1csc(NC(=O)C(c2ccccc2)c2ccccc2)n1` [compound 280], the “% Activity” value is listed as “++ (“++” means between 25% to 100%)” and the EC50 is less than 10 µM.

As for `CCOC(=O)Cc1csc(NC(=O)C(c2ccccc2)c2ccccc2)n1` [compound 281], the “% Activity” value is on record as “++ (“++” means between 25% to 100%)” and the EC50 is 10 to 25 µM.

Regarding `COc1ncccc1Cc1cnc(NC(=O)C(c2ccccc2)c2ccccc2)s1` [compound 282], the “% Activity” value is reported as “++ (“++” means between 25% to 100%)” and the 50% effective concentration (EC50) is less than 10 µM.

Take `CCC(C(=O)Nc1ncc(Cc2cccnc2OC)s1)c1ccccc1` (stereo not drawn) [compound 283]: the “% Activity” value is on record as “++ (“++” means between 25% to 100%)” and the concentration for a half-maximal effect (EC50) is less than 10 µM.

With `CCC(C(=O)Nc1ncc(Cc2cccc(OC)c2)s1)c1ccccc1` (stereo not drawn) [compound 284], the “% Activity” value is “++ (“++” means between 25% to 100%)” and the EC50 was less than 10 µM.

Regarding `CCC(C(=O)Nc1ncc(Cc2cc(F)ccc2OC)s1)c1ccccc1` (stereo not drawn) [compound 285], the “% Activity” value was “++ (“++” means between 25% to 100%)” and the EC50 is less than 10 µM.

Turning to `CCC(C(=O)Nc1ncc(Cc2ccc(OC)cc2)s1)c1ccccc1` (stereo not drawn) [compound 286], the “% Activity” value is on record as “++ (“++” means between 25% to 100%)” and the EC50 was less than 10 µM.

As to `CCCc1nc(NC(=O)C(c2ccccc2)c2ccccc2)sc1C(=O)OCC` [compound 287], the “% Activity” value is reported as “++ (“++” means between 25% to 100%)” and the 50% effective concentration (EC50) was less than 10 µM.

Regarding `CCCc1nc(NC(=O)C(CC)c2ccccc2)sc1C(=O)OCC` (stereo not drawn) [compound 288], the “% Activity” value is “++ (“++” means between 25% to 100%)” and the EC50 is less than 10 µM.

Consider `CCC(C(=O)Nc1nc2c(s1)C(=O)CCC2)c1ccccc1` (stereo not drawn) [compound 289], for which the “% Activity” value is listed as “++ (“++” means between 25% to 100%)” and the EC50 was 25 to 60 µM.
